Source: US6914160B1, “Oxytocin inhibitors” (Pfizer Inc, priority 2002, dated 2005)

Molecular target: T1, Oxytocin Receptor (Homo sapiens, UniProt P30559)
T1 construct: expressed in transfected cells; host or cells: CHO cells (membrane preparation)
T1 sequence (P30559 1-389): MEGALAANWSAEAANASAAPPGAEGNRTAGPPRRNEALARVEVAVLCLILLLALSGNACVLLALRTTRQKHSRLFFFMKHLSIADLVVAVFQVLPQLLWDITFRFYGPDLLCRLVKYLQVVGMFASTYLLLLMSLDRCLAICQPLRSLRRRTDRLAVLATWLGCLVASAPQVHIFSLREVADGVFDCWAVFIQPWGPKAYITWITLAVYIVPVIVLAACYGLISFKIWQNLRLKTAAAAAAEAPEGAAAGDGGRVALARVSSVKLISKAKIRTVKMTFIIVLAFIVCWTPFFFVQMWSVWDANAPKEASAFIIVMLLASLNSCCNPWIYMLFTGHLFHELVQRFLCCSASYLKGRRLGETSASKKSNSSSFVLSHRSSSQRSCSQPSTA
Assay: Oxytocin Receptor Ligand Binding IC50 Assay (125I-OVTA SPA, CHO cell membranes)
Procedure: A. Oxytocin Receptor Ligand Binding IC50 Assay
• ii) Compound Dilution (Final concentration of 10 μM in the assay) • a) HTA stock compounds at 4 mM in 100% DMSO • b) Dilute compounds to 200 μM in dH2O. • c) Further dilute compounds to 100 μM in 100 mM Tris-HCl, pH 7.8, 20 mM MgCl2. This gives final concentrations of 2.5% DMSO, 50 mM Tris-HCl, pH 7.8, 10 mM MgCl2. • d) Using the diluted stock, prepare 1:2 dilutions over 10 points in 50 mM Tris-HCl, pH 7.8, 10 mM MgCl2, 2.5% DMSO with the TECAN Genesis. • e) Dispense 10 μl of the compound into a 384 well Optiplate according to the plate layout required for analysis by ECADA leaving space for the standard (arg^8)-vasotocin IC50. […] Protein concentrations are then measured and the membrane suspension is finally frozen in aliquots at a minimum of 5 mg/ml at −80° C. vi) Assay • Membranes are thawed on ice before diluting to 1 mg/ml in assay buffer. […] A 5 μl sample is then counted in duplicate using liquid scintillation counting (protocol 61 on Wallac Counter) and the concentration of the ligand is calculated (see example below). […] Using the measured concentration, the ^125I-OVTA is diluted to 0.3 nM in assay buffer. […]

COc1cccc(C(C(N)=O)N(Cc2ccc(C)cc2)C(=O)c2c(C)cc(C)nc2N)c1 (single isomer, unassigned) [Example 258, (R or S)-2-Amino-N-[carbamoyl-[(3-methoxyphenyl)-methyl]-4,6-dimethyl-N-(4-methyl-benzyl)-nicotinamide]
Ki: 9.4 nM

Cc1ccc(CN(C(=O)c2c(C)cc(C)nc2N)C(C(N)=O)c2ccc3c(c2)OCCO3)cc1 (centres unmarked) [Example 257, 2-Amino-N-[carbamoyl-(2,3-dihydro-benzo[1.4]dioxin-6-yl)-methyl]-4,6-dimethyl-N-(4-methyl-benzyl)-nicotinamide]
Ki: 9.4 nM
